Reference: patent publication US6814988B2, “Process for optimizing milk production” (Novus International, Inc., priority 1997, dated 2004)
Read-outs that look alike come from different tables or passages of the source.

Experiments:
in vivo = conditions: female, cow
[1] = Lactation study, Alimet in close-up dry period and early lactation diets (Example 2); assay type: in vivo, cows
Method: The diets (Table IV) were formulated to include Alimet® to meet the methionine requirements as determined using existing computer modeling technology (CNCPS and DAIRYLP). The diets were balanced to meet amino acid requirements and included standard feed ingredients used in dairy rations. In the absence of added Alimet®, the control diet was predicted to be first limiting in methionine. The estimated need for methionine was approximately 9 grams per day. Alimet® was added assuming an availability to the ruminant of 20%.
This study included 10 multiparous and five primiparous cows per treatment, supplemented with Alimet® for two weeks before calving and for 12 weeks of lactation. […] At peak milk yield, Alimet-fed multiparous cows produced 7.9 kg/d more FCM than unsupplemented cows (42.0 vs 34.1 kg/d). The benefits of supplying post ruminal amino acid would appear to be greatest during the close-up dry period and early lactation.

[2] = female, cow, in vivo
[3] = Amount of methionine hydroxy analog bypassing the rumen and available for absorption, summary of experimental evidence; assay type: in vivo, ruminant
From the text: Everything considered, therefore, the amount of the hydroxy analog of methionine which bypasses the rumen and is available for absorption is between about 40% and about 55%.

[4] = Rumen bypass and gastrointestinal availability of HMB in rumen- and duodenum-cannulated lactating dairy cows (Example 1); conditions: for Chromium Concentration: 3 g Cr into rumen
[5] = duodenal fluid, 3 to 24 hours, cow 124
[6] = duodenal fluid, 3 to 24 hours, cow 131
[7] = duodenal fluid, 3 to 24 hours, cow 133
[8] = duodenal fluid, 3 to 24 hours, cow 138
[9] = duodenal fluid, 3 to 24 hours, mean of four cows
[10] = rumen fluid, 1 to 24 hours, cow 24
[11] = rumen fluid, 1 to 24 hours, cow 131
[12] = rumen fluid, 1 to 24 hours, cow 133
[13] = rumen fluid, 1 to 24 hours, cow 138
[14] = rumen fluid, 1 to 24 hours, mean of four cows

CSCCC(O)C(=O)O (stereo not drawn) [HMB, DL, 2-hydroxy-4-[methylthio]butanoic acid]
bioavailability (in vivo): 40%
concentration at 0 h (in vivo; HMB Concentration): < 10000 ng/mL
concentration at 24 h (in vivo; HMB Concentration): < 10000 ng/mL
concentration at 24 h (in vivo; rumen concentration of HMB): < 10000 ng/mL
more FCM than unsupplemented cows ([1]; multiparous cows at peak milk yield): 7.9 kg/day
FCM production ([1]; multiparous cows at peak milk yield, unsupplemented 34.1): 42.0 kg/day
milk protein content, higher than unsupplemented cows ([1]; supplemented two weeks before calving and 12 weeks of lactation): not
milk fat content ([1]; supplemented two weeks before calving and 12 weeks of lactation, unsupplemented 3.71%): 4.01%
fat-corrected content (FCM) production ([1]; supplemented two weeks before calving and 12 weeks of lactation, unsupplemented 29.2): 33.4 kg/day
milk production ([1]; supplemented two weeks before calving and 12 weeks of lactation, unsupplemented 31.3): 33.9 kg/day
percent of the HMB dose absorbed in the omasum [2]: 8.8%
percent of the HMB dose bypassing the rumen fermentation [2]: 40%
percent of the HMB dose that disappeared (was degraded) in the rumen [2]: 60%
percent of the HMB that passed to the small intestine [2]: 31.2%
rate constant for microbial degradation of HMB within the rumen [2]: −0.1962
time by which rumen and duodenal HMB and serum methionine had returned to pre-dose levels [2]: ≤ 12 h
time of peak duodenal HMB concentration [2]: 3 h
time of peak ruminal HMB concentration [2]: 1 h
time of peak serum methionine concentration [2]: 6 h
HMB Concentration ([2]; 0 h): <10 µg/mL
increase in serum methionine above pre-dose levels at the peak concentration ([2]; 6 h): 200%
HMB Concentration ([2]; 24 h): <10 µg/mL
amount absorbed by the omasum ([3]; additional experimental evidence): about 8.8%
amount which by-passes the rumen ([3]; experimental bypass data and field work with dairy cattle (milk response), molecular basis): at least 40%
amount which bypasses the rumen and is available for absorption ([3]; fed in the absence of a bypass fat, molecular basis, experimental evidence to date): at least 20%

chromium-EDTA
Chromium Concentration ([4]; duodenal fluid, 0 h, cow 124): 1.36 µg/mL
Chromium Concentration ([4]; duodenal fluid, 0 h, cow 131): 0.05 µg/mL
Chromium Concentration ([4]; duodenal fluid, 0 h, cow 133): 0.05 µg/mL
Chromium Concentration ([4]; duodenal fluid, 0 h, cow 138): 0.02 µg/mL
Constant, linear regression of natural logarithm of Cr concentration versus time [4, 5]: 3.0038
K (fractional rate constant), Chromium [4, 5]: −.0705
Constant, linear regression of natural logarithm of Cr concentration versus time [4, 6]: 3.5284
K (fractional rate constant), Chromium [4, 6]: −.1201
Constant, linear regression of natural logarithm of Cr concentration versus time [4, 7]: 3.6342
K (fractional rate constant), Chromium [4, 7]: −.1173
Constant, linear regression of natural logarithm of Cr concentration versus time [4, 8]: 3.7419
K (fractional rate constant), Chromium [4, 8]: −.1135
Constant, linear regression of natural logarithm of Cr concentration versus time [4, 9]: 3.4771
K (fractional rate constant), Chromium; rate constant for passage of the Cr marker to the duodenum [4, 9]: −.1053
K (fractional rate constant), Chromium; rate constant for passage of the Cr marker to the duodenum ([4]; duodenal fluid, 3 to 24 hours, mean of four cows, listed as Cr): −0.1053
Chromium Concentration ([4]; duodenal fluid, 1 h, cow 124): 11.69 µg/mL
Chromium Concentration ([4]; duodenal fluid, 1 h, cow 131): 23.80 µg/mL
Chromium Concentration ([4]; duodenal fluid, 1 h, cow 133): 12.14 µg/mL
Chromium Concentration ([4]; duodenal fluid, 1 h, cow 138): 17.98 µg/mL
Chromium Concentration ([4]; duodenal fluid, 3 h, cow 124): 18.30 µg/mL
Chromium Concentration ([4]; duodenal fluid, 3 h, cow 131): 24.55 µg/mL
Chromium Concentration ([4]; duodenal fluid, 3 h, cow 133): 25.41 µg/mL
Chromium Concentration ([4]; duodenal fluid, 3 h, cow 138): 27.23 µg/mL
Chromium Concentration ([4]; duodenal fluid, 6 h, cow 124): 11.99 µg/mL
Chromium Concentration ([4]; duodenal fluid, 6 h, cow 131): 17.86 µg/mL
Chromium Concentration ([4]; duodenal fluid, 6 h, cow 133): 18.42 µg/mL
Chromium Concentration ([4]; duodenal fluid, 6 h, cow 138): 23.24 µg/mL
Chromium Concentration ([4]; duodenal fluid, 9 h, cow 124): 11.00 µg/mL
Chromium Concentration ([4]; duodenal fluid, 9 h, cow 131): 12.16 µg/mL
Chromium Concentration ([4]; duodenal fluid, 9 h, cow 133): 16.36 µg/mL
Chromium Concentration ([4]; duodenal fluid, 9 h, cow 138): 19.26 µg/mL
Chromium Concentration ([4]; duodenal fluid, 12 h, cow 124): 7.89 µg/mL
Chromium Concentration ([4]; duodenal fluid, 12 h, cow 131): 6.39 µg/mL
Chromium Concentration ([4]; duodenal fluid, 12 h, cow 133): 7.89 µg/mL
Chromium Concentration ([4]; duodenal fluid, 12 h, cow 138): 8.39 µg/mL
Chromium Concentration ([4]; duodenal fluid, 24 h, cow 124): 3.88 µg/mL
Chromium Concentration ([4]; duodenal fluid, 24 h, cow 131): 2.06 µg/mL
Chromium Concentration ([4]; duodenal fluid, 24 h, cow 133): 2.29 µg/mL
Chromium Concentration ([4]; duodenal fluid, 24 h, cow 138): 2.85 µg/mL
Chromium Concentration ([4]; rumen fluid, 0 h, cow 124): 0.04 µg/mL
Chromium Concentration ([4]; rumen fluid, 0 h, cow 131): 0.07 µg/mL
Chromium Concentration ([4]; rumen fluid, 0 h, cow 133): 0.01 µg/mL
Chromium Concentration ([4]; rumen fluid, 0 h, cow 138): 0.02 µg/mL
Constant, linear regression of natural logarithm of Cr concentration versus time [4, 10]: 3.4702
K (fractional rate constant), Chromium [4, 10]: −.0940
Constant, linear regression of natural logarithm of Cr concentration versus time [4, 11]: 2.7330
K (fractional rate constant), Chromium [4, 11]: −.1576
Constant, linear regression of natural logarithm of Cr concentration versus time [4, 12]: 3.7310
K (fractional rate constant), Chromium [4, 12]: −.1302
Constant, linear regression of natural logarithm of Cr concentration versus time [4, 13]: 3.9905
K (fractional rate constant), Chromium [4, 13]: −.1411
Constant, linear regression of natural logarithm of Cr concentration versus time [4, 14]: 3.7312
K (fractional rate constant), Chromium; rate of passage of the liquid marker from the rumen [4, 14]: −.1307
K (fractional rate constant), Chromium; rate of passage of the liquid marker from the rumen ([4]; rumen fluid, 1 to 24 hours, mean of four cows, listed as Cr): −0.1307
Chromium Concentration ([4]; rumen fluid, 1 h, cow 124): 31.83 µg/mL
Chromium Concentration ([4]; rumen fluid, 1 h, cow 131): 36.27 µg/mL
Chromium Concentration ([4]; rumen fluid, 1 h, cow 133): 40.44 µg/mL
Chromium Concentration ([4]; rumen fluid, 1 h, cow 138): 45.51 µg/mL
Chromium Concentration ([4]; rumen fluid, 3 h, cow 124): 23.77 µg/mL
Chromium Concentration ([4]; rumen fluid, 3 h, cow 131): 29.11 µg/mL
Chromium Concentration ([4]; rumen fluid, 3 h, cow 133): 34.52 µg/mL
Chromium Concentration ([4]; rumen fluid, 3 h, cow 138): 37.05 µg/mL
Chromium Concentration ([4]; rumen fluid, 6 h, cow 124): 19.29 µg/mL
Chromium Concentration ([4]; rumen fluid, 6 h, cow 131): 18.09 µg/mL
Chromium Concentration ([4]; rumen fluid, 6 h, cow 133): 16.62 µg/mL
Chromium Concentration ([4]; rumen fluid, 6 h, cow 138): 27.94 µg/mL
Chromium Concentration ([4]; rumen fluid, 9 h, cow 124): 12.93 µg/mL
Chromium Concentration ([4]; rumen fluid, 9 h, cow 131): 8.89 µg/mL
Chromium Concentration ([4]; rumen fluid, 9 h, cow 133): 10.79 µg/mL
Chromium Concentration ([4]; rumen fluid, 9 h, cow 138): 13.89 µg/mL
Chromium Concentration ([4]; rumen fluid, 12 h, cow 124): 9.16 µg/mL
Chromium Concentration ([4]; rumen fluid, 12 h, cow 131): 5.04 µg/mL
Chromium Concentration ([4]; rumen fluid, 12 h, cow 133): 7.86 µg/mL
Chromium Concentration ([4]; rumen fluid, 12 h, cow 138): 8.28 µg/mL
Chromium Concentration ([4]; rumen fluid, 24 h, cow 124): 3.62 µg/mL
Chromium Concentration ([4]; rumen fluid, 24 h, cow 131): 1.07 µg/mL
Chromium Concentration ([4]; rumen fluid, 24 h, cow 133): 2.08 µg/mL
Chromium Concentration ([4]; rumen fluid, 24 h, cow 138): 1.97 µg/mL
